In PubChem BioAssay AID248 (DTP/NCI, 2004):
“And” between values parts separate entries of the source, which are not always exact repeats. Equal entries are not always repeated. Toxic doses and inconclusive results are not listed.

System: L1210 leukemia ip in BDF1 mice, survival T/C
Assay: NCI In Vivo Anticancer Drug Screen. Data for tumor model L1210 Leukemia (intraperitoneal) in B6D2F1 (BDF1) mice
Conditions: endpoint: mean survival time, higher = longer survival
Outline: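 Mice bearing the transplanted tumor received compound or vehicle. Survival of the treated group was divided by that of the vehicle-treated control group to give the ratio.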

[1] = dose: 25.0 mg/kg/injection, schedule: Q01DX009 (ip), vehicle: saline with Tween-80
[2] = dose: 25.0 mg/kg/injection, schedule: Q04DX003 (ip), vehicle: saline with Tween-80
[3] = dose: 100.0 mg/kg/injection, schedule: Q01DX009 (ip), vehicle: Klucel (hydroxypropylcellulose) (HPC)
[4] = dose: 200.0 mg/kg/injection, schedule: Q01DX009 (ip), vehicle: Klucel (hydroxypropylcellulose) (HPC)
[5] = dose: 100.0 mg/kg/injection, schedule: Q04DX002 (ip), vehicle: Klucel (hydroxypropylcellulose) (HPC)
[6] = dose: 6.25 mg/kg/injection, schedule: Q04DX003 (ip), vehicle: saline with Tween-80
[7] = dose: 12.5 mg/kg/injection, schedule: Q04DX003 (ip), vehicle: saline with Tween-80
[8] = dose: 50.0 mg/kg/injection, schedule: Q01DX009 (ip), vehicle: saline with Tween-80
[9] = dose: 100.0 mg/kg/injection, schedule: Q01DX009 (ip), vehicle: saline with Tween-80
[10] = dose: 200.0 mg/kg/injection, schedule: Q04DX002 (ip), vehicle: Klucel (hydroxypropylcellulose) (HPC)
[11] = dose: 100.0 mg/kg/injection, schedule: Q04DX003 (ip), vehicle: saline
[12] = dose: 100.0 mg/kg/injection, schedule: Q01DX001 (ip), vehicle: other
[13] = dose: 100.0 mg/kg/injection, schedule: Q04DX003 (ip), vehicle: Klucel (hydroxypropylcellulose) (HPC)
[14] = dose: 200.0 mg/kg/injection, schedule: Q01DX001 (ip), vehicle: other
[15] = dose: 200.0 mg/kg/injection, schedule: Q04DX003 (ip), vehicle: Klucel (hydroxypropylcellulose) (HPC)
[16] = dose: 400.0 mg/kg/injection, schedule: Q04DX003 (ip), vehicle: Klucel (hydroxypropylcellulose) (HPC)
[17] = dose: 400.0 mg/kg/injection, schedule: Q01DX009 (ip), vehicle: Klucel (hydroxypropylcellulose) (HPC)
[18] = dose: 100.0 mg/kg/injection, schedule: Q04DX002 (ip), vehicle: saline with Tween-80
[19] = dose: 100.0 mg/kg/injection, schedule: Q01DX001 (ip), vehicle: saline with Tween-80
[20] = dose: 100.0 mg/kg/injection, schedule: Q04DX003 (ip), vehicle: saline with Tween-80
[21] = dose: 200.0 mg/kg/injection, schedule: Q01DX001 (ip), vehicle: saline with Tween-80
[22] = dose: 400.0 mg/kg/injection, schedule: Q01DX001 (ip), vehicle: saline with Tween-80
[23] = dose: 400.0 mg/kg/injection, schedule: Q04DX003 (ip), vehicle: saline with Tween-80

In the case of `O=C(C=C(C(F)(F)F)C(F)(F)F)c1ccc(Cl)c2ccccc12`, the T/C (dose: 12.5 mg/kg/injection, schedule: Q01DX009 (ip), vehicle: saline with Tween-80) is reported as 94 % of control, the T/C [1] is reported as 92 % of control and the T/C [2] is reported as 107 % of control. The T/C (dose: 50.0 mg/kg/injection, schedule: Q04DX003 (ip), vehicle: saline with Tween-80) was 90 % of control.
For `Nc1ncncc1-c1ccccc1[N+](=O)[O-]`, the T/C (dose: 50.0 mg/kg/injection, schedule: Q01DX009 (ip), vehicle: Klucel (hydroxypropylcellulose) (HPC)) was 98 % of control, the T/C [3] was 98 % of control and the T/C [4] was 102 % of control.
With `CCN(CC)CCCC(C)Nc1cc(OC)cc2cccnc12` (stereo unspecified) the T/C (dose: 10.0 mg/kg/injection, schedule: Q01DX009 (ip), vehicle: Klucel (hydroxypropylcellulose) (HPC)) was 93 % of control, the T/C (dose: 20.0 mg/kg/injection, schedule: Q01DX001 (ip), vehicle: Klucel (hydroxypropylcellulose) (HPC)) was 100 % of control and the T/C (dose: 20.0 mg/kg/injection, schedule: Q01DX009 (ip), vehicle: Klucel (hydroxypropylcellulose) (HPC)) was 96 % of control. For the same compound, the T/C (dose: 40.0 mg/kg/injection, schedule: Q01DX001 (ip), vehicle: Klucel (hydroxypropylcellulose) (HPC)) was 100 % of control and the T/C (dose: 40.0 mg/kg/injection, schedule: Q01DX009 (ip), vehicle: Klucel (hydroxypropylcellulose) (HPC)) was 96 % of control.
With `NC(CSS(=O)(=O)O)=NCCc1ccc(O)cc1` the T/C (dose: 25.0 mg/kg/injection, schedule: Q04DX002 (ip), vehicle: Klucel (hydroxypropylcellulose) (HPC)) was 110 % of control and the T/C [5] was 90 % of control and 91 % of control.
For `CCOC(OCC)C(=O)OCC(=O)[C@]1(O)Cc2c(O)c3c(c(O)c2[C@@H](OC2CC(N)C(O)C(C)O2)C1)C(=O)c1c(OC)cccc1C3=O` (stereo partly specified), the T/C (dose: 0.25 mg/kg/injection, schedule: Q01DX009 (ip), vehicle: saline) was 118 % of control, the T/C (dose: 2.0 mg/kg/injection, schedule: Q01DX009 (ip), vehicle: saline) was 182 % of control and the T/C (dose: 4.0 mg/kg/injection, schedule: Q01DX009 (ip), vehicle: saline) was 90 % of control.
`CCOc1ccccc1C1N(C)CCCN1C` was tested, and the T/C [6] was 99 % of control, the T/C [7] was 100 % of control and the T/C [2] was 99 % of control.
For `COc1ccccc1OC(=O)CCl`, the T/C [1] was 90 % of control, the T/C [8] was 93 % of control and the T/C [9] was 93 % of control.
With `CCCCCCCCCCCCC(=O)N(CCCC)CCCC` the T/C [5] was 92 % of control, the T/C [10] was 96 % of control and the T/C (dose: 400.0 mg/kg/injection, schedule: Q04DX002 (ip), vehicle: Klucel (hydroxypropylcellulose) (HPC)) was 103 % of control.
`CCCCN1CCN(CCCC)C1=O` was tested, and the T/C [5] was 90 % of control and the T/C [10] was 90 % of control.
`CC(=O)Nc1ccc(C(=O)O)c(O)c1` was tested, and the T/C (dose: 50.0 mg/kg/injection, schedule: Q04DX003 (ip), vehicle: saline) was 113 % of control, the T/C [11] was 108 % of control and the T/C (dose: 200.0 mg/kg/injection, schedule: Q04DX003 (ip), vehicle: saline) was 105 % of control.
For `O=C(OCCCCCOC(=O)c1ccccc1O)c1ccccc1O`, the T/C [12] was 91 % of control, the T/C [13] was 92 % of control and the T/C [14] was 88 % of control. For the same compound, the T/C [15] was 91 % of control and the T/C [16] was 89 % of control.
`Cc1cccc(N=C/C=C/c2ccccc2)c1C` was tested, and the T/C [3] was 94 % of control, the T/C [4] was 100 % of control and the T/C [17] was 108 % of control.
`CN1CC2(Cc3ccccc3)c3ccccc3NC2(NC(=O)CCl)C1=O` (stereo unspecified) was tested, and the T/C (dose: 25.0 mg/kg/injection, schedule: Q04DX002 (ip), vehicle: saline with Tween-80) was 87 % of control, the T/C (dose: 50.0 mg/kg/injection, schedule: Q04DX002 (ip), vehicle: saline with Tween-80) was 90 % of control and the T/C [18] was 91 % of control.
In the case of `O=C(Nc1ccc(Cl)cc1)OCC#CCOC(=O)Nc1ccc(Cl)cc1`, the T/C (dose: 75.0 mg/kg/injection, schedule: Q04DX003 (ip), vehicle: Klucel (hydroxypropylcellulose) (HPC)) is reported as 93 % of control, the T/C [19] is reported as 90 % of control and the T/C [20] is reported as 88 % of control. The T/C (dose: 150.0 mg/kg/injection, schedule: Q04DX003 (ip), vehicle: Klucel (hydroxypropylcellulose) (HPC)) was 93 % of control, the T/C [21] was 88 % of control and the T/C (dose: 300.0 mg/kg/injection, schedule: Q04DX003 (ip), vehicle: Klucel (hydroxypropylcellulose) (HPC)) was 98 % of control. The T/C [22] was 90 % of control and the T/C [23] was 90 % of control.
In the case of `CCN(CCC[N+](C)(C)C)C(=O)C(c1ccccc1)c1ccccc1`, the T/C [11] is reported as 93 % of control.
For `COC(=O)c1ccccc1NC(c1ccccn1)c1ccc2cccnc2c1O` (stereo unspecified), the T/C (dose: 125.0 mg/kg/injection, schedule: Q01DX Z (ip), vehicle: carboxymethylcellulose (CMC)) was 108 % of control, the T/C (dose: 250.0 mg/kg/injection, schedule: Q01DX Z (ip), vehicle: carboxymethylcellulose (CMC)) was 102 % of control and the T/C (dose: 500.0 mg/kg/injection, schedule: Q01DX Z (ip), vehicle: carboxymethylcellulose (CMC)) was 101 % of control.
For `O=CNc1ncn[nH]1`, the T/C (dose: 50.0 mg/kg/injection, schedule: Q01DX001 (ip), vehicle: saline) was 98 % of control, the T/C (dose: 100.0 mg/kg/injection, schedule: Q01DX001 (ip), vehicle: saline) was 98 % of control and the T/C (dose: 200.0 mg/kg/injection, schedule: Q01DX001 (ip), vehicle: saline) was 104 % of control. For the same compound, the T/C (dose: 400.0 mg/kg/injection, schedule: Q01DX001 (ip), vehicle: saline) was 104 % of control.
For `Clc1ccccc1C=NCC1CCC(CN=Cc2ccccc2Cl)CC1` (stereo unspecified), the T/C [8] was 92 % of control and 100 % of control, the T/C [19] was 106 % of control and the T/C [9] was 92 % of control. The T/C [18] was 104 % of control and 88 % of control, the T/C [21] was 93 % of control and the T/C (dose: 200.0 mg/kg/injection, schedule: Q01DX009 (ip), vehicle: saline with Tween-80) was 90 % of control. The T/C (dose: 200.0 mg/kg/injection, schedule: Q04DX002 (ip), vehicle: saline with Tween-80) was 100 % of control, the T/C [22] was 98 % of control and the T/C (dose: 400.0 mg/kg/injection, schedule: Q04DX002 (ip), vehicle: saline with Tween-80) was 89 % of control.
`O=C(c1ccc(Cl)cc1)C1Cc2ccccc2C1=O` (stereo unspecified) was tested, and the T/C [3] was 97 % of control, the T/C [13] was 101 % of control and the T/C [4] was 94 % of control. The T/C [15] was 101 % of control, the T/C [17] was 91 % of control and the T/C [16] was 97 % of control.
In the case of `CCCN(CCC)C(=O)C1C2C=CC(C2)C1C(=O)N(CCC)CCC` (stereo unspecified), the T/C [20] is reported as 98 % of control, the T/C (dose: 200.0 mg/kg/injection, schedule: Q04DX003 (ip), vehicle: saline with Tween-80) is reported as 111 % of control and the T/C [23] is reported as 98 % of control.
For `Cc1[nH]c(=S)[nH]c(=O)c1CCC(C)C`, the T/C [13] was 113 % of control, the T/C [15] was 100 % of control and the T/C [16] was 106 % of control.
In the case of `Nc1ncnc(N)c1NC(=O)c1cccc(Br)c1`, the T/C [6] is reported as 96 % of control, the T/C [7] is reported as 96 % of control and the T/C [2] is reported as 100 % of control and 103 % of control.
For `Cc1c(N)ccc2ccccc12`, the T/C (dose: 25.0 mg/kg/injection, schedule: Q04DX003 (ip), vehicle: Klucel (hydroxypropylcellulose) (HPC)) was 94 % of control, the T/C (dose: 50.0 mg/kg/injection, schedule: Q04DX003 (ip), vehicle: Klucel (hydroxypropylcellulose) (HPC)) was 91 % of control and the T/C [12] was 103 % of control. The T/C [13] was 91 % of control, the T/C [14] was 99 % of control and the T/C (dose: 400.0 mg/kg/injection, schedule: Q01DX001 (ip), vehicle: other) was 97 % of control.
For `Cc1cccnc1NC(=O)/C=C/C(=O)O`, the T/C (dose: 12.5 mg/kg/injection, schedule: Q01DX009 (ip), vehicle: saline) was 94 % of control, the T/C (dose: 25.0 mg/kg/injection, schedule: Q01DX009 (ip), vehicle: saline) was 100 % of control and the T/C (dose: 50.0 mg/kg/injection, schedule: Q01DX009 (ip), vehicle: saline) was 94 % of control.
With `CCOc1ccc(NC(=O)Nc2cccc(Cl)c2)cc1` the T/C [3] was 103 % of control, the T/C [13] was 95 % of control and the T/C [15] was 103 % of control. The T/C [17] was 87 % of control and the T/C [16] was 100 % of control.
